In patent US11464782B2, “Method of treating pain or interstitial cystitis using indole compound” (Japan Tobacco Inc., priority 2018, dated 2022):

System: CIA model rats
Experiment: Analgesic effect in rat collagen-induced arthritis (CIA) model, paw withdrawal threshold by Randall-Selitto method
Format: in vivo
Conditions: rats with CIA; 10 or 30 mg/kg oral once per day Days 22-28; measured Day 28
Experimental: The analgesic effect of Compound A on hypersensitivity to pain during the onset of arthritis in a rat CIA model was evaluated. Hypersensitivity to pain was evaluated using the paw withdrawal threshold (PWT) in relation to mechanical stimulus using the Randall-Selitto method.
Female LEW/CrlCrlj rats (Charles River Laboratories Japan, Inc.) were used for the experiment. A monohydrochloride of Compound A was dissolved in 0.5% methyl cellulose (MC) to prepare 2 mg/mL and 6 mg/mL solutions of Compound A. Type II collagen derived from joint bovine cartilage (Collagen Research Center) was dissolved in acetic acid to prepare a 2 mg/mL type II collagen solution. Equal volumes of the 2 mg/mL type II collagen solution and incomplete Freund's adjuvant were mixed to prepare a 1 mg/mL type II collagen emulsion.
On Day 1, the type II collagen emulsion was intradermally injected into the animals in the vehicle group, the Compound A 10 mg/kg administration group, and the Compound A 30 mg/kg administration group. On Day 8, the type II collagen emulsion was intradermally injected into the animals in the vehicle group, the Compound A 10 mg/kg administration group, and the Compound A 30 mg/kg administration group. […] On Day 28, the analgesic effect was measured using a Randall-Selitto analgesy-meter (TK-201, UNICOM). The means values and standard deviations of the PWT values for each group were calculated.

## C[C@@H](C(=O)N(C)c1ccc2cc(-c3n[nH]c4c3CCC(C)(C)C4)[nH]c2c1)N1CCOCC1 [Compound A, N-[2-(6,6-dimethyl-4,5,6,7-tetrahydro-1H-indazol-3-yl)-1H-indol-6-yl]-N-methyl-(2S)-2-(morpholin-4-yl)propanamide]
  hyperalgesia (paw withdrawal threshold to mechanical stimulus): attenuated hyperalgesia
